In patent US20240358984A1, “Ultrasound delivery” (ACT Therapeutics Ltd, priority 2021, published 2024):

Test system: subcutaneous prostate cancer model (PC3)
Assay: Tumour specific uptake of Evans Blue after ACT
Type: in vivo, mice
Conditions: Enhancement 0.5 MHz, MI 0 to 0.4, 30 min after treatment
Experimental: To investigate the effect of MI variance of the US Enhancement field, tumour specific uptake of Evans Blue (EB, fluorescent dye) has been investigated in a subcutaneous prostate cancer model (PC3) in mice. Five groups with Enhancement insonation MIs of 0, 0.1, 0.2, 0.3 and 0.4 were investigated (N=3 animals per group). […] 30 min after treatment, the tumors were excised and the amount of EB was measured by spectrophotometry at 620 nm.

`Cc1cc(-c2ccc(/N=N/c3ccc4c(S(=O)(=O)O)cc(S(=O)(=O)O)c(N)c4c3O)c(C)c2)ccc1/N=N/c1ccc2c(S(=O)(=O)O)cc(S(=O)(=O)O)c(N)c2c1O` [Evans Blue] was tested, and the “tumour tissue uptake as function of Enhancement MI” value was “increases from no US (MI=0) to MI=0.1 and further with MI=0.2, but then drops again with MI=0.3 and further with M=0.4”.
